Data as given in patent US20050153992A1, “Pyrrolopyrimidine thion derivatives” (TEIJIN PHARMA LIMITED, priority 2003, published 2005).

Molecular target: recombinant human GSK-3β (Homo sapiens, UniProt P49841)
Assay: Determination of Inhibition of GSK-3 Activity (phospho-glycogen synthase peptide-2, [γ-33P]ATP, scintillation counting)
Type: biochemical
Conditions: 20 μM ATP, 20 minutes at room temperature; read-out: GSK-3 inhibitor activity values (IC50 values)
Experimental: Determination of Inhibition of GSK-3 Activity
The reaction was initiated by adding 25 μL of phospho-glycogen synthase peptide-2 substrate solution [containing 6 μM phospho-glycogen synthase peptide-2, 20 μM ATP, 16 mM MOPS buffer (pH 7.0), 0.2 mM EDTA, 20 mM magnesium acetate, 0.1 μ Ci[γ-^33P]ATP (relative activity: approximately 110 TBq/mmol)] to 5 μL of each test compound using 5% dimethylsulfoxide as a solvent, and further adding 20 μL of GSK-3β enzyme solution [containing 10 mU recombinant human GSK-3β, 20 mM MOPS buffer (pH 7.0), 1 mM EDTA, 0.1% polyoxyethylene lauryl ether (23 Lauryl Ether; Brij 35), 5% glycerol, and 0.1% β-mercaptoethanol. After 20 minutes at room temperature, the reaction was terminated by the addition of the equivalent amount of 200 mM phosphoric acid solution. 90 μL of the reaction product was spotted onto a multiscreen PH plate (manufactured by Millipore) and washed with 100 mM phosphoric acid solution. The plate was dried, and 30 μL of MicroScint-O (manufactured by Packard BioScience) was added thereto. To evaluate inhibitory activity, cpm was counted using a scintillation counter. Here, Phospho GS Peptide 2 is an amino acid peptide having the following sequence: […]P)-Glu-Asp-Glu- Glu-Glu.
GSK-3 inhibitor activity values (IC50 values) of the compounds according to the present invention were measured by the method described above. As a result, inhibition activity of IC50<100 nM was confirmed in compounds of compound numbers 1, 35, 36, 37, 123, 157, 158, 160, 193, 234, and 263.

recombinant human GSK-3β, sequence (P49841 whole entry): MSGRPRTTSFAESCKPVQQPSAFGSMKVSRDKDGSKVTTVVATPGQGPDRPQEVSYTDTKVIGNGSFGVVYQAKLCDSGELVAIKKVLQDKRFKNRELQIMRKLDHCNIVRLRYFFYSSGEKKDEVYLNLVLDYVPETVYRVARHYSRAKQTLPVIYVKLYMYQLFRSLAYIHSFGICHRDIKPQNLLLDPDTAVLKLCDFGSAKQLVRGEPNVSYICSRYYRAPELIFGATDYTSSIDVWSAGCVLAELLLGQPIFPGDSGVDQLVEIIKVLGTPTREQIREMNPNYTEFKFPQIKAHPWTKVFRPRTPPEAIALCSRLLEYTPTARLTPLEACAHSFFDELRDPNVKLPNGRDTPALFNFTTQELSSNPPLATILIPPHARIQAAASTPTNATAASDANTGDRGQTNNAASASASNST

SMILES | IC50 [nM]
O=C(NCCn1c(-c2sccc2Cl)c(I)c2nc[nH]c(=S)c21)c1ccc(F)cc1 [Compound 1, N-{2-[6-(3-chloro(2-thienyl))-7-iodo-4-thioxo(3-hydropyrrolo[3,2-d]pyrimidin-5-yl)]ethyl}(4-fluorophenyl)carboxyamide] | < 100
CCn1nc(C)cc1C(=O)NCCn1c(-c2sccc2Cl)c(I)c2nc[nH]c(=S)c21 [Compound 234, N-{2-[6-(3-chloro(2-thienyl))-7-iodo-4-thioxo(3-hydropyrrolo[3,2-d]pyrimidin-5-yl)]ethyl}(1-ethyl-3-methylpyrazol-5-yl)carboxyamide] | < 100
S=c1[nH]cnc2c(I)c(-c3sccc3Cl)n(CCNc3ncnc4ccccc34)c12 [Compound 37, 6-(3-chloro(2-thienyl))-7-iodo-5-[2-(quinazolin-4-ylamino)ethyl]-3-hydropyrrolo[3,2-d]pyrimidin-4-thione] | < 100
O=C(NCCn1c(-c2sccc2Cl)c(-c2cccnc2)c2nc[nH]c(=S)c21)C(F)(F)F [Compound 123] | < 100

The remaining lines, values ahead:

IC50 [nM] | SMILES
< 100 | O=C(NCCn1c(-c2sccc2Cl)c(Br)c2nc[nH]c(=S)c21)c1ccc(F)cc1 [Compound 158]
< 100 | O=C(NCCn1c(-c2sccc2Cl)c(Cl)c2nc[nH]c(=S)c21)c1ccc(F)cc1 [Compound 157]
< 100 | Nc1c(-c2sccc2Cl)n(CCNC(=O)c2ccc(F)cc2)c2c(=S)[nH]cnc12 [Compound 160, N-{2-[7-amino-6-(3-chloro(2-thienyl))-4-thioxo(3-hydropyrrolo[3,2-d]pyrimidin-5-yl)]ethyl}(4-fluorophenyl)carboxyamide]
< 100 | O=C(NCCn1c(-c2sccc2Cl)c(NC(=O)c2ccccc2)c2nc[nH]c(=S)c21)c1ccc(F)cc1 [Compound 193, N-{2-[6-(3-chloro(2-thienyl))-7-(phenylcarbonylamino)-4-thioxo(3-hydropyrrolo[3,2-d]pyrimidin-5-yl)]ethyl}(4-fluorophenyl)carboxyamide]
